The source of these data is patent US9938321B2, “Cyclic peptoid oligomers, pharmaceutical compositions and methods of using the same” (priority 2013, dated 2018).

For data set [1], the system named is MRSA USA300 (S. aureus LAC). The protocol:
The cyclic pentamers and hexamers were evaluated for antimicrobial activity against S. aureus LAC, a clinical isolate of MRSA. The antimicrobial assay was conducted using previously published procedures (CLSI Broth Macrodilution Procedures CLSI M07-A7).
(§1) Minimum Inhibitory Concentrations (MIC) were determined against S. aureus LAC in RPMI media supplemented with or without normal human serum (NHS). The 10% hemolytic dose was determined from lysis of human erythrocytes. A selectivity ratio (SR) is defined as HC10/MIC. Cytotoxicity assays were performed using a CellTiter kit with HeLa cells. […] TI: therapeutic index defined as LD50/MIC.
(§2) Antimicrobial susceptibility assays were conducted in 96-well plates using the broth microdilution procedure outlined in the document M07-A7 of the CLSI (Clinical and Laboratory Standards Institute. Methods for Dilution Antimicrobial Susceptibility Tests for Bacteria That Grow Aerobically-Seventh Edition: Approved Standard CLSI document M07-A7. CLSI, Wayne, USA, 2006). Screens against Staphylococcus aureus LAC, MW2, Newman, and RN6734 were conducted in RPMI (Roswell Park Memorial Institute) medium. For assays in serum, normal human pooled serum (NHS) was filtered through a 0.45 μm syringe filter (Pall) prior to dilution with RPMI, such that each well contained 50% (v/v) NHS. Experiments were conducted in three independent replicates of three parallel trials to ensure statistical significance.
(§3) MRSA pulse-field gel electrophoresis types USA300 (strain LAC) (Kennedy, et al, Proc. Natl. Acad. Sci. U.S.A. 2008, 105, 1327-1332) and USA500 (BK2395) (Alonzo, 3rd, et al, Mol. Microbiol. 2012, 83, 423-435) were used in this study. S. aureus were grown in tryptic soy broth (BD Biosciences) as described previously. (Alonzo) Antimicrobial susceptibility assays were conducted in 96-well plates using the broth […] procedure outlined in the document M07-A7 of the CLSI. (Clinical and Laboratory Standards Institute. Methods for Dilution Antimicrobial Susceptibility Tests for Bacteria That Grow Aerobically-Seventh Edition: Approved Standard CLSI document M07-A7. CLSI, Wayne, USA, 2006). The screens against Staphylococcus aureus LAC were conducted in either LB (Luria-Bertani) or RPMI medium. For assays in serum, normal human pooled serum (NHS) was filtered through a 0.45 μm syringe filter (Pall) prior to dilution with RPMI, such that each well contained 50% (v/v) NHS. Experiments were conducted in three independent replicates of three parallel trials to ensure statistical significance.

Data set [2] deals with MRSA USA300 (S. aureus LAC). The protocol:
The antimicrobial activities of these four compounds were evaluated in the presence of serum. Such a consideration is critical in evaluating the potential of antimicrobial compounds to be used systemically, as serum components (e.g. proteins) may complicate antimicrobial activity. The assay was conducted similarly as described above, with the media supplemented with 50% normal human serum (NHS).
as §1, §2, §3
This is another data set of the same source.

The subject of a further data set is human erythrocytes. Type of data set: cell-based. The conditions noted are these: red cells of human, 1 h. From the text: A detrimental property of most AMPs is their toxicity towards host cells due to non-specific interactions with eukaryotic membranes. Thus, the development of antimicrobial oligomers is often aimed at maximizing antimicrobial activity while minimizing eukaryotic cell toxicity. The inventors therefore sought to determine the toxicity of the cyclic peptoids by measuring hemolytic activity. The concentration of antimicrobial compound required to lyse 10% of human erythrocytes (HC10) following incubation for 1 hour at 37° C., was determined.
Hemolysis assays were conducted in 96-well plates using fresh human erythrocytes in PBS (phosphate-buffered saline) solution. Erythrocytes treated with a detergent (1% Triton X-100) solution were used as a positive control for erythrocyte lysis, and vehicle buffer (PBS) was used as a negative control. Hemolytic percentages were defined as [(A−Atestblank)/(Acontrol−Ablank)]×100, where A is the absorbance of the test well and Acontrol the average absorbance of wells with erythrocytes exposed to […], Atestblank (PBS and antimicrobial) and Ablank (PBS only).

The next data set in a line: in vitro. The conditions noted are these: human. On the procedure: (§4) As an additional parameter of selectivity, the inventors also evaluated the compounds for toxicity towards nucleated mammalian cells (FIG. 3). The compounds were incubated with HeLa cells for 1 hr at 37° C. and cell viability was determined by a dye-based assay.
(§5) HeLa cells (˜[…] cells per well) were seeded in a tissue culture-treated 96-well plate (Corning). The cells were monitored for confluence via light microscopy prior to the addition of compounds to a final volume of 100 μL/well. Following incubation with the compounds (for 1 hour or 24 hours at 37° C.), Cell Titer (Promega) was added to each well and the assay was allowed to develop for 1 hour at 37° C. Absorbance was then read at 490 nm using a Wallac Envision plate reader. The experiments were always conducted in triplicate with water or ethanol as the negative control. Percent cell viability (% CV) was calculated as the ratio of mean absorbance of the test wells and the mean absorbance of the water or ethanol treated wells.
(§6) Following seeding in DMEM supplemented with 10% v/v FBS (fetal bovine serum) in tissue-culture plates (Corning), adherent HeLa cells were trypsinized, washed in PBS, and re-suspended in medium at a density of 1×10^6 cells/mL. A 100 μL cell suspension was seeded onto a 96-well plate and cultured for 25 hrs. Subsequently, cells were exposed to the different compounds for 1 and 24 hrs and the cell viability evaluated using CellTiter 96® AQueous Non-Radioactive Cell Proliferation Assay (Promega).

The test system of the next data set is HeLa cells. The experiment in a line: in vitro. The conditions noted are these: HeLa cells, 1 hr incubation at 37° C. On the procedure: as §4, §5, §6
The test system of a further data set is S. aureus LAC. The experiment in a line: Scanning electron microscopy of treated cells (Example 1). Type of data set: cell-based, Staphylococcus aureus. The following applies: sub-MIC, MIC, or supra-MIC; 1 hr or 18 hr. The text has this: AMPs have long been thought to exert their bactericidal activities by interacting with negatively-charged bacterial membranes (Zasloff, Nature 2002, 415, 389-395; Ivankin, et al, Angew. Chem. Int. Ed. 2010, 49, 8462-8465). While the exact mode of action has yet to be fully understood, the interaction of the AMP eventually leads to damage of the bacterial membrane that is visible by scanning electron microscopy (SEM). (Hartmann et al, 2010, Antimicrob Agents Ch 54, 3132-3142) SEM was used to examine the morphological changes which occur to the S. aureus cell surface upon exposure to peptoid antimicrobials (FIG. 2).
SEM samples were prepared following the procedure outlined in Hartmann et al ([…], Antimicrob Agents Ch 54:3132-3142). Mid-exponential S. aureus LAC in LB medium (10 g/L tryptone and 5 g/L yeast, pH 7.4) was prepared by diluting an overnight culture of S. aureus LAC in LB media till OD600˜0.4 (approximately 3 hours at 37° C.). […] After washing with PBS, the samples were treated with 30% ethanol for 10 minutes, 3% uranyl acetate (Electron Microscopy Sciences) in 30% ethanol/water, 50% ethanol for 10 minutes, and 70% ethanol overnight at 4° C. […]

The subject of data set [3] is Plasmodium falciparum 3D7. The conditions noted are these: 3D7, 96 h.
Protocol: In order to assess the ability of the peptoid oligomers described herein to act as antimalarial agents, fluorescence-based in vitro antimalarial assays were performed.
Cultures are maintained by changing the medium daily and keeping parasitemia below 6%. When performed, parasite cultures are synchronized using a MACS cell separation column (Miltenyi Biotec). To determine parasitemia, the number of parasitized erythrocytes from 500 cells in a Giemsa stained blood smear are counted.
Drug Treatment: • 1. Add 100 μL of warm (37° C.) complete media containing drug to each well of a 96 multi-well clear, sterile plate. • 2. […] After 96 hours of growth*, freeze at −80° C. overnight. *Note: Growth can be examined by pipetting 5 from desired wells onto slides and creating blood smears. […] After freezing, thaw at 37° C. for 4 hours. • 6. Transfer 100 μL, pipetting wells up and down to mix, to a black, sterile 96 well plate. • 7. Create working solution of 0.2 μL of SYBR Green per 1 mL of lysis buffer, and add 100 μL of this solution to each well, pipetting up and down to mix/lyse erythrocytes. *Note: mixture should be a translucent red color. • 8. Incubate at room temperature, protected from light, on a shaker for 1 hour.
Measure the fluorescence using excitation and emission wavelengths of 485 and 530 nm, respectively. […]
Another data set can be described thus: physchem. The following applies: water.

Usually MIC stands for the smallest concentration in the dilution series that meets the test's criterion for growth inhibition. Lower therefore signals greater potency. As usually defined, the IC50 is the concentration at which inhibition is half-maximal. A low value points to greater potency in that assay. The term solubility denotes the dissolved amount per volume that the medium holds. Read a low solubility as little dissolved substance.

In brackets after ≈: the same amount, converted by molar mass. Like-named read-outs stand apart in the source and are kept apart here.

As to `Cc1cc(C)cc(CN2CC(=O)N(CCCN)CC(=O)N(Cc3cc(C)cc(C)c3)CC(=O)N(CCCN)CC(=O)N(Cc3cc(C)cc(C)c3)CC(=O)N(CCCN)CC2=O)c1` [Compound C124, C(NapNdmb)3], the MIC turned out to be 3.9 µg/mL (≈ 4.49 µM) in data set [1] (Table 2, S. aureus LAC, clinical isolate of MRSA) and 3.9 µg/mL (≈ 4.49 µM) in data set [1] (USA300). The “decrease in anti-microbial activity in serum” value in data set [2] (50% NHS versus no serum) is “approximately four-fold”. The “MIC + NHS” value in data set [2] (MRSA USA300 in 50% (v/v) normal human serum) was found to be 15.6 µg/mL. Besides, in the data set on human erythrocytes, the “HC10 (concentration required to lyse 10% of human erythrocytes)” value came out at 125 µg/mL. The CC50 at 24 h in “in vitro” is about 100 µg/mL (≈ 115 µM). For the same compound, in the data set “in vitro” (LC50 (50% lethal concentration), HeLa cells, 1 hr incubation at 37° C.), the CC50 at 1 h turned out to be 180 µg/mL (≈ 207 µM). The “LC50 (50% lethal concentration)” value in the data set with HeLa cells is about 180 µg/mL (≈ 207 µM). Besides, the “cell morphology by SEM” value with S. aureus LAC is given as “cell surface damage”. In data set [3], this compound yielded an IC50 of 17 µM. This compound displayed a solubility in the data set “physchem” of at least 15 mg/mL.
